In patent US4822796A, “1-((Phenothiazin-10-yl)alkyl)-alpha-phenyl-4-piperidinemethanols and pharmaceutical use” (priority 1987, dated 1989):

Key:
[1] = modified phenyl-p-quinone writhing assay in mice (analgesia); format: in vivo, mice (male, Charles River, CD-1)
Procedure: The procedure employed to determine analgesic utility is a modification of the phenyl-p-quinone writhing assay in mice, a standard assay for analgesia [Proc. Soc. Exptl. Bio. Med., 95 729 (1957)]. In the modified procedure phenyl-p-benzoquinone (Eastman, 12.5 mg) is dissolved in 5 ml of 95% ethanol and the solution is diluted to a total volume of 100 ml with distilled water. The solution is administered to the subject mice […] at a dose of 10 ml per kg of body weight. A characteristic "writh", an inward rotation of one or more feet with twisting and turning of the trunk, drawing in of the abdominal wall, lordosis and arching of the back, is produced.
A total of 28 male mice (Charles River, CD-1), weighing 18 to 30 grams, are employed for a time response. The subject animals receive food and water ad libitum. Test compounds are dissolved in distilled water, or suspended in distilled water containing one drop of a suitable surfactant, such as Tween-80.
Four groups of five animals (20 animals) are given the test compound subcutaneously at 15, 30, 45 and 60 minutes prior to administration of the phenyl-p-quinone. Four control groups of 2 animals (8 animals) receive an equal volume of the vehicle. […] The number of writhes for each animal is recorded. […]

[2] = climbing mice assay (antipsychotic activity; inhibition of apomorphine induced climbing); format: in vivo, mice (CK-1 male); conditions: Mus musculus, ip, 30 minutes prior to apomorphine 1.5 mg/kg s.c., read-out: Anti-Psychotic Activity (ED50), 50% inhibition of apomorphine induced climbing
Text: The subject CK-1 male mice (23-27 grams) are group-housed under standard laboratory conditions. The mice are individually placed in wire mesh stick cages (4"×4" by 10") and are allowed one hour for adaptation and exploration of the new environment.
Mice consistently climbing before the injection of apomorphine are discarded.
With full-developed apomorphine climbing, the animals are hanging onto the cage walls, rather motionless, over longer periods of time. By contrast, climbs due to mere motor stimulation usually last only a few seconds.

CC(C)=CCN1CCC2(C)c3cc(O)ccc3CC1C2C (stereo not shown) [Pentazocine]
Analgesic Activity (% Inhibition of Writhing) ([1]; at 1.3 mg/kg sc, standard): 50%

CSc1ccc2c(c1)N(CCC1CCCCN1C)c1ccccc1S2 (stereo not shown) [Thioridazine]
ED50 [2]: 4.1 mg/kg

CSc1ccc2c(c1)N(CCCN1CCC(C(O)c3ccc(F)cc3)CC1)c1ccccc1S2 (stereo not drawn) [α-(4-Fluorophenyl)-1-[3-(2-methylthiophenothiazin-10-yl)propyl]-4-piperidinemethanol]
Analgesic Activity (% Inhibition of Writhing) ([1]; at 20 mg/kg, subcutaneous (route per method)): 43%
ED50 [2]: 8.6 mg/kg
